Active and inactive are the calls of the source. No cut-off for these calls is given here.

The test system of one assay is Oryza sativa. In words: Growth promoting activity in Oryza sativa (rice) assessed as increase in shoot length at 1 x 10^-5 M relative to control. It counts as functional.
As for `Cc1[nH]c2ccccc2c1C(CC(=O)O)C(F)(F)F` (racemic), the Activity turned out to be 103.2%.

For `Cc1cccc2[nH]cc(C(CC(=O)O)C(F)(F)F)c12` (racemic), the Activity was 102.7%.

On to `Cc1ccc2c(C(CC(=O)O)C(F)(F)F)c[nH]c2c1` (racemic), for which the Activity turned out to be 106.2%.

Consider `Cc1cccc2c(C(CC(=O)O)C(F)(F)F)c[nH]c12` (racemic), for which the Activity is given as 112.8%.

Turning to `Cc1c(C(CC(=O)O)C(F)(F)F)[nH]c2ccccc12` (racemic), the Activity amounted to 106.2%.

As for `Cn1cc(C(CC(=O)O)C(F)(F)F)c2ccccc21` (racemic), the Activity was 105.3%.

On to `O=C(O)CC(c1c[nH]c2ccccc12)C(F)(F)F` (racemic), for which the Activity amounted to 99%.

Take `Cc1ccc2[nH]cc(C(CC(=O)O)C(F)(F)F)c2c1` (racemic): the Activity is 105.5%.

A further assay relates to Brassica rapa. In words: Growth promoting activity in Brassica rapa (Chinese cabbage) assessed as increase in root length. It is filed as functional, organism-based.
Consider `Cc1cccc2[nH]cc(C(CC(=O)O)C(F)(F)F)c12` (racemic), for which the outcome was Active.

On to `Cc1ccc2c(C(CC(=O)O)C(F)(F)F)c[nH]c2c1` (racemic), for which the outcome was Active.

Consider `Cc1cccc2c(C(CC(=O)O)C(F)(F)F)c[nH]c12` (racemic), for which the result was Active.

Consider `Cc1c(C(CC(=O)O)C(F)(F)F)[nH]c2ccccc12` (racemic), for which the outcome was Active.

Regarding `Cn1cc(C(CC(=O)O)C(F)(F)F)c2ccccc21` (racemic), the outcome was inactive.

The subject of the next assay is Oryza sativa. In words: Growth promoting activity in Oryza sativa (rice) assessed as increase in root length at 1 x 10^-3 M relative to control. It counts as functional, organism-based.
On to `Cc1[nH]c2ccccc2c1C(CC(=O)O)C(F)(F)F` (racemic), for which the outcome was inactive.

With `Cc1cccc2[nH]cc(C(CC(=O)O)C(F)(F)F)c12` (racemic), the outcome was inactive.

As for `Cc1ccc2c(C(CC(=O)O)C(F)(F)F)c[nH]c2c1` (racemic), the outcome was inactive.

As to `Cc1cccc2c(C(CC(=O)O)C(F)(F)F)c[nH]c12` (racemic), the result was inactive.

On to `Cc1c(C(CC(=O)O)C(F)(F)F)[nH]c2ccccc12` (racemic), for which the outcome was inactive.

For the molecule `Cn1cc(C(CC(=O)O)C(F)(F)F)c2ccccc21` (racemic), the result was inactive.

Turning to `O=C(O)CC(c1c[nH]c2ccccc12)C(F)(F)F` (racemic), the result was inactive.

Take `Cc1ccc2[nH]cc(C(CC(=O)O)C(F)(F)F)c2c1` (racemic): the result was inactive.

For a further assay, the system named is Oryza sativa. In words: Growth promoting activity in Oryza sativa (rice) assessed as increase in shoot length at 1 x 10^-6 M relative to control. It counts as functional.
Turning to `Cc1[nH]c2ccccc2c1C(CC(=O)O)C(F)(F)F` (racemic), the Activity was 98.8%.

Turning to `Cc1cccc2[nH]cc(C(CC(=O)O)C(F)(F)F)c12` (racemic), the Activity amounted to 103.6%.

Consider `Cc1ccc2c(C(CC(=O)O)C(F)(F)F)c[nH]c2c1` (racemic), for which the Activity was 103.3%.

In the case of `Cc1cccc2c(C(CC(=O)O)C(F)(F)F)c[nH]c12` (racemic), the Activity is reported as 96%.

With `Cc1c(C(CC(=O)O)C(F)(F)F)[nH]c2ccccc12` (racemic), the Activity came out at 98.4%.

Consider `Cn1cc(C(CC(=O)O)C(F)(F)F)c2ccccc21` (racemic), for which the Activity is on record as 94.6%.

Turning to `O=C(O)CC(c1c[nH]c2ccccc12)C(F)(F)F` (racemic), the Activity amounted to 99.2%.

On to `Cc1ccc2[nH]cc(C(CC(=O)O)C(F)(F)F)c2c1` (racemic), for which the Activity was determined as 100.5%.

A further assay concerns Oryza sativa. In words: Growth promoting activity in Oryza sativa (rice) assessed as increase in root length at 1 x 10^-6 M relative to control. It is filed as functional.
As to `Cc1[nH]c2ccccc2c1C(CC(=O)O)C(F)(F)F` (racemic), the Activity amounted to 111.8%.

As for `Cc1cccc2[nH]cc(C(CC(=O)O)C(F)(F)F)c12` (racemic), the Activity was found to be 172.5%.

For the molecule `Cc1ccc2c(C(CC(=O)O)C(F)(F)F)c[nH]c2c1` (racemic), the Activity is 172%.

Take `Cc1cccc2c(C(CC(=O)O)C(F)(F)F)c[nH]c12` (racemic): the Activity is listed as 126%.

`Cc1c(C(CC(=O)O)C(F)(F)F)[nH]c2ccccc12` (racemic): the Activity was 134.6%.

On to `Cn1cc(C(CC(=O)O)C(F)(F)F)c2ccccc21` (racemic), for which the Activity is reported as 136.2%.

As to `O=C(O)CC(c1c[nH]c2ccccc12)C(F)(F)F` (racemic), the Activity is 128.9%.

Take `Cc1ccc2[nH]cc(C(CC(=O)O)C(F)(F)F)c2c1` (racemic): the Activity is listed as 168.5%.

A further assay relates to Brassica rapa. In words: Growth promoting activity in Brassica rapa (Chinese cabbage) assessed as increase in root length at 1 x 10^-4 M relative to control. It counts as functional.
`Cc1cccc2[nH]cc(C(CC(=O)O)C(F)(F)F)c12` (racemic): the “fold change (FC)” value is on record as 2.5.

As to `Cc1ccc2c(C(CC(=O)O)C(F)(F)F)c[nH]c2c1` (racemic), the “fold change (FC)” value came out at 2.5.

As for `Cc1cccc2c(C(CC(=O)O)C(F)(F)F)c[nH]c12` (racemic), the “fold change (FC)” value is on record as 2.5.

Turning to `Cc1c(C(CC(=O)O)C(F)(F)F)[nH]c2ccccc12` (racemic), the “fold change (FC)” value is listed as 2.5.

The test system of a further assay is Brassica rapa. In words: Growth promoting activity in Brassica rapa (Chinese cabbage) assessed as increase in root length at 1 x 10^-3 M relative to control. It counts as functional, organism-based.
Regarding `Cc1[nH]c2ccccc2c1C(CC(=O)O)C(F)(F)F` (racemic), the outcome was inactive.

Turning to `Cc1cccc2[nH]cc(C(CC(=O)O)C(F)(F)F)c12` (racemic), the result was inactive.

Regarding `Cc1ccc2c(C(CC(=O)O)C(F)(F)F)c[nH]c2c1` (racemic), the result was inactive.

`Cc1cccc2c(C(CC(=O)O)C(F)(F)F)c[nH]c12` (racemic): the outcome was inactive.

Consider `Cc1c(C(CC(=O)O)C(F)(F)F)[nH]c2ccccc12` (racemic), for which the outcome was inactive.

For the molecule `Cn1cc(C(CC(=O)O)C(F)(F)F)c2ccccc21` (racemic), the outcome was inactive.

For `Cc1ccc2[nH]cc(C(CC(=O)O)C(F)(F)F)c2c1` (racemic), the outcome was inactive.

Another assay concerns Oryza sativa. In words: Growth promoting activity in Oryza sativa (rice) assessed as increase in root length at 1 x 10^-5 M relative to control. It is filed as functional.
Regarding `Cc1[nH]c2ccccc2c1C(CC(=O)O)C(F)(F)F` (racemic), the Activity is given as 242%.

`Cc1cccc2[nH]cc(C(CC(=O)O)C(F)(F)F)c12` (racemic): the Activity is listed as 357.5%.

With `Cc1ccc2c(C(CC(=O)O)C(F)(F)F)c[nH]c2c1` (racemic), the Activity stood at 377.5%.

Turning to `Cc1cccc2c(C(CC(=O)O)C(F)(F)F)c[nH]c12` (racemic), the Activity was determined as 277.1%.

For `Cc1c(C(CC(=O)O)C(F)(F)F)[nH]c2ccccc12` (racemic), the Activity is 266%.

Take `Cn1cc(C(CC(=O)O)C(F)(F)F)c2ccccc21` (racemic): the Activity is recorded as 211.1%.

As to `O=C(O)CC(c1c[nH]c2ccccc12)C(F)(F)F` (racemic), the Activity turned out to be 290.1%.

`Cc1ccc2[nH]cc(C(CC(=O)O)C(F)(F)F)c2c1` (racemic): the Activity is 382.4%.

The test system of another assay is Lactuca sativa. In words: Growth promoting activity in Lactuca sativa (lettuce) assessed as increase in root length at 1 x 10^-4 M relative to control. It is filed as functional, organism-based.
Take `Cc1[nH]c2ccccc2c1C(CC(=O)O)C(F)(F)F` (racemic): the outcome was inactive.

For `Cc1cccc2[nH]cc(C(CC(=O)O)C(F)(F)F)c12` (racemic), the result was Active.

In the case of `Cc1ccc2c(C(CC(=O)O)C(F)(F)F)c[nH]c2c1` (racemic), the result was Active.

Consider `Cc1cccc2c(C(CC(=O)O)C(F)(F)F)c[nH]c12` (racemic), for which the outcome was Active.

Take `Cc1c(C(CC(=O)O)C(F)(F)F)[nH]c2ccccc12` (racemic): the result was inactive.

Regarding `Cn1cc(C(CC(=O)O)C(F)(F)F)c2ccccc21` (racemic), the outcome was Active.

In the case of `Cc1ccc2[nH]cc(C(CC(=O)O)C(F)(F)F)c2c1` (racemic), the outcome was Active.

For the next assay, the system named is Oryza sativa. In words: Growth promoting activity in Oryza sativa (rice) assessed as increase in shoot length at 1 x 10^-3 M relative to control. It counts as functional.
In the case of `Cc1[nH]c2ccccc2c1C(CC(=O)O)C(F)(F)F` (racemic), the Activity came out at 36.6%.

For the molecule `Cc1cccc2[nH]cc(C(CC(=O)O)C(F)(F)F)c12` (racemic), the Activity is given as 33.7%.

For `Cc1ccc2c(C(CC(=O)O)C(F)(F)F)c[nH]c2c1` (racemic), the Activity came to 31.5%.

Regarding `Cc1cccc2c(C(CC(=O)O)C(F)(F)F)c[nH]c12` (racemic), the Activity was determined as 36.9%.

Consider `Cc1c(C(CC(=O)O)C(F)(F)F)[nH]c2ccccc12` (racemic), for which the Activity was 38.2%.

For the molecule `Cn1cc(C(CC(=O)O)C(F)(F)F)c2ccccc21` (racemic), the Activity worked out at 46%.

As to `O=C(O)CC(c1c[nH]c2ccccc12)C(F)(F)F` (racemic), the Activity was 35.6%.

Consider `Cc1ccc2[nH]cc(C(CC(=O)O)C(F)(F)F)c2c1` (racemic), for which the Activity is 31.9%.

The next assay has as its system Oryza sativa. In words: Growth promoting activity in Oryza sativa (rice) assessed as increase in root length at 1 x 10^-4 M relative to control. It counts as functional.
In the case of `Cc1[nH]c2ccccc2c1C(CC(=O)O)C(F)(F)F` (racemic), the Activity was 168%.

For `Cc1cccc2[nH]cc(C(CC(=O)O)C(F)(F)F)c12` (racemic), the Activity was 274.6%.

On to `Cc1ccc2c(C(CC(=O)O)C(F)(F)F)c[nH]c2c1` (racemic), for which the Activity stood at 311.4%.

Consider `Cc1cccc2c(C(CC(=O)O)C(F)(F)F)c[nH]c12` (racemic), for which the Activity is reported as 224.4%.

`Cc1c(C(CC(=O)O)C(F)(F)F)[nH]c2ccccc12` (racemic): the Activity is reported as 433.3%.

Consider `Cn1cc(C(CC(=O)O)C(F)(F)F)c2ccccc21` (racemic), for which the Activity is recorded as 153.4%.

Regarding `O=C(O)CC(c1c[nH]c2ccccc12)C(F)(F)F` (racemic), the Activity is 199.5%.

Regarding `Cc1ccc2[nH]cc(C(CC(=O)O)C(F)(F)F)c2c1` (racemic), the Activity is listed as 331.1%.

A further assay relates to Lactuca sativa. In words: Growth promoting activity in Lactuca sativa (lettuce) assessed as increase in root length at 1 x 10^-5 M relative to control. It is filed as functional, organism-based.
Turning to `Cc1[nH]c2ccccc2c1C(CC(=O)O)C(F)(F)F` (racemic), the outcome was inactive.

In the case of `Cc1cccc2[nH]cc(C(CC(=O)O)C(F)(F)F)c12` (racemic), the result was Active.

On to `Cc1ccc2c(C(CC(=O)O)C(F)(F)F)c[nH]c2c1` (racemic), for which the outcome was Active.

Turning to `Cc1cccc2c(C(CC(=O)O)C(F)(F)F)c[nH]c12` (racemic), the outcome was Active.

As for `Cc1c(C(CC(=O)O)C(F)(F)F)[nH]c2ccccc12` (racemic), the result was Active.

In the case of `Cn1cc(C(CC(=O)O)C(F)(F)F)c2ccccc21` (racemic), the result was inactive.

In the case of `Cc1ccc2[nH]cc(C(CC(=O)O)C(F)(F)F)c2c1` (racemic), the outcome was Active.

For another assay, the system named is Oryza sativa. In words: Growth promoting activity in Oryza sativa (rice) assessed as increase in shoot length at 1 x 10^-4 M relative to control. It counts as functional.
As for `Cc1[nH]c2ccccc2c1C(CC(=O)O)C(F)(F)F` (racemic), the Activity stood at 84%.

On to `Cc1cccc2[nH]cc(C(CC(=O)O)C(F)(F)F)c12` (racemic), for which the Activity is listed as 86.4%.

Turning to `Cc1ccc2c(C(CC(=O)O)C(F)(F)F)c[nH]c2c1` (racemic), the Activity is given as 95.9%.

As to `Cc1cccc2c(C(CC(=O)O)C(F)(F)F)c[nH]c12` (racemic), the Activity amounted to 83.3%.

With `Cc1c(C(CC(=O)O)C(F)(F)F)[nH]c2ccccc12` (racemic), the Activity amounted to 99%.

For the molecule `Cn1cc(C(CC(=O)O)C(F)(F)F)c2ccccc21` (racemic), the Activity was found to be 86.2%.

In the case of `O=C(O)CC(c1c[nH]c2ccccc12)C(F)(F)F` (racemic), the Activity was found to be 76.7%.

As for `Cc1ccc2[nH]cc(C(CC(=O)O)C(F)(F)F)c2c1` (racemic), the Activity was determined as 90%.

The record behind these values is ChEMBL document CHEMBL3046610, “Synthesis and Biological Activities of Fluorinated Plant Growth Regulators, 4, 4, 4-Trifluoro-3-(3-indolyl)butyric Acids and 4, 4, 4-Trifluoro-3-(2-indolyl)butyric Acid Bearing a Methyl Group on the Indole Nucleus” (1997).
